Series [1] deals with HCT-116 (COLON). Kind of series: In vitro cytotoxicity GI50, Example 48. The series is classed as cell-based. Particulars: Alamar Blue or Sulfarhodamine B. As for the experimental part:
The study was performed using either Alamar Blue or Sulfarhodamine B assays.
(Alamar Blue is a resazurin reagent that responds to reducing activity.)

A further series has as its system H460 (NSCLC). The experiment in a line: In vitro cytotoxicity GI50, Example 48. Type of series: cell-based.
In the next series the test system is SKOV-3 (OVARIAN). The experiment in a line: In vitro cytotoxicity GI50, Example 48. Type of series: cell-based. Particulars: Homo sapiens, SK-OV-3, Alamar Blue or Sulfarhodamine B.
The conditions of series [2]: rat, in vivo, iv; cited from earlier work.
A short description of series [3]: Solubility to saturation in various solvents, supernatant analysed by HPLC. The series is classed as physicochemical. The method, then:
Compounds were dissolved in each solvent under constant stirring and temperature to saturation. The resulting solutions were centrifuged and the supernatant was analyzed by high performance liquid chromatography (HPLC).

For the next series, the system named is MCF-7 (BREAST). Kind of series: In vitro cytotoxicity GI50, Example 17. The series is classed as cell-based. Particulars: Homo sapiens, MCF7, emulsion formulations, 48 hours, ALAMAR BLUE. The method, then: (§1) The cells were in contact with varying concentrations of the test article for a period of 48 hours. At the end of 48 hours, staining with ALAMAR BLUE was performed to determine the number of viable cells and calculate the degree of cellular growth inhibition as compared to a control group.

In the next series the test system is NCI-H460 (NSCLC). Kind of series: In vitro cytotoxicity GI50, Example 17. Particulars: Homo sapiens. The series is classed as cell-based. As for the experimental part:
as §1

The test system of a further series is HCT-15 (COLON). The experiment in a line: In vitro cytotoxicity GI50, Example 17. The series is classed as cell-based. Particulars: Homo sapiens. The method, then: as §1
In a further series the test system is HT29 (COLON). The experiment in a line: In vitro cytotoxicity GI50, Example 17. The series is classed as cell-based. Particulars: Homo sapiens. As for the experimental part:
as §1

The subject of a further series is OVCAR-3 (OVARIAN). Kind of series: In vitro cytotoxicity GI50, Example 17. Type of series: cell-based. Particulars: emulsion formulations, 48 hours, ALAMAR BLUE. As for the experimental part:
as §1

The subject of series [4] is HCT-116 (COLON). The experiment in a line: In vitro cytotoxicity GI50, Example 17. Type of series: cell-based. Particulars: Homo sapiens. The method, then: as §1
Series [5] in a line: Pharmacokinetics after intravenous bolus in rats. The series is classed as in vivo. Particulars: Sprague-Dawley, rat, intravenous bolus of emulsion, approximately 14 mg/kg, plasma; for half-life: read-out: t1/2 (elimination) (converted). The method, then: Blood samples were collected for up to 120 hours post dose via the jugular vein. […] A noncompartmental analysis was carried out using WinNonlin (v 4.1).

In another series the test system is HT-29 human tumor cells. The experiment in a line: HT-29 human tumor xenograft. Type of series: in vivo, Athymic mice. Particulars: for Number of animals with no measurable tumor on Day 55 / Tumor Growth Delay (T-C) / Tumor Growth Inhibition (% T/C): 15 mg/kg i.v.; for Mice with no measurable tumor: fifty-five days after dose initiation. As for the experimental part:
HT-29 Human Tumor Xenograft. Athymic mice were subcutaneously implanted with 30-40 mg tumor fragments using 12-gauge trocar needles. A sufficient number of mice were implanted with fragments so tumors in narrow weight range (100-200 mg) were selected for the trial on staging day (SD). The animals selected with tumors in the proper size range were randomized into six groups of 10 animals and intravenously administered the following test compounds:
In both xenograph studies, animal body weights and tumors were measured twice weekly following the initiation of dosing. The tumor measurements were performed using a caliper (millimeters); the tumor volume was calculated based on the formula: (Length×width^2)/2=Volume(mm^3).
(In xenograft studies the graft and the host belong to different species.)

Series [6] is described as follows: In vitro stability of the lactone form in the presence of human serum albumin. The series is classed as in vitro ADME. Particulars: saline buffered solution 10 mM pH 7.4, 4% human serum albumin, 37° C.; emulsions vs camptothecin in DMSO; FIG. 12. The text has this:
High performance liquid chromatography with fluorescence detection was used to analyze the decrease in the concentration of the lactone form over time.

The values below come from US20080045559A1, “TOCOPHEROL-MODIFIED THERAPEUTIC DRUG COMPOUNDS” (SONUS PHARMACEUTICALS, INC., priority 2003, published 2008).

The structures appear in SMILES notation. Where a name gives a salt, the structure may show the parent alone. Read-outs that look alike come from different tables or passages of the source. Marks after values point to notes of the source that are not given here.

Usually GI50 stands for the concentration at which growth is held to half of that of the control. Take `CCc1c2c(nc3ccc(OC(=O)CC(C)CC(=O)Oc4c(C)c(C)c5c(c4C)CC[C@@](C)(CCC[C@H](C)CCC[C@H](C)CCCC(C)C)O5)cc13)-c1cc3c(c(=O)n1C2)COC(=O)[C@]3(O)CC` (stereo partly drawn) [d-α-tocopherol-3-methylglutarate-SN38, d-α-Tocopherol-3-methylglutarate-7-ethyl-10-hydroxycamptothecin]: the GI50 in the series with HCT-116 (COLON) [1] (HCT-116) is 187 nM; in the series on HCT-116 (COLON) [1] (Homo sapiens, HCT-116, HCT-116), 116 nM.
Consider `CCc1c2c(nc3ccc(OC(=O)CCC(=O)Oc4c(C)c(C)c5c(c4C)CCC(C)(CCCC(C)CCCC(C)CCCC(C)C)O5)cc13)-c1cc3c(c(=O)n1C2)COC(=O)C3(CC)OC(=O)CCC(=O)Oc1c(C)c(C)c2c(c1C)CCC(C)(CCCC(C)CCCC(C)CCCC(C)C)O2` (stereo not drawn) [10,20-diVESA-SN38, 10,20-Di(tocopherol succinate) 7-Ethyl-10-hydroxycamptothecin], for which the GI50 in the series with HCT-116 (COLON) [1] (HCT-116) came to 9330 nM; in the series on H460 (NSCLC) (H460, Alamar Blue or Sulfarhodamine B, read-out: GI50), 4060 nM.
In turn, `CCc1c2c(nc3ccc(OC(=O)CCC(=O)Oc4cc(C)c5c(c4)CC[C@@](C)(CCC[C@H](C)CCC[C@H](C)CCCC(C)C)O5)cc13)-c1cc3c(c(=O)n1C2)COC(=O)[C@]3(O)CC` [δ-tocopherol succinate-SN38, δ-Tocopherolsuccinate-7-ethyl-10-hydroxycamptothecin] registered a GI50 in the series with SKOV-3 (OVARIAN) of 2.95 nM.
Regarding `CCc1c2c(nc3ccc(OC(C)=O)cc13)-c1cc3c(c(=O)n1C2)COC(=O)[C@@]3(CC)OC(=O)CCC(=O)Oc1c(C)c(C)c2c(c1C)CC[C@@](C)(CCC[C@H](C)CCC[C@H](C)CCCC(C)C)O2` [10-acetyl-20-VESA-SN38, 10-Acetyl-20-(d-α-tocopherolsuccinate)-7-ethyl-10-hydroxycamptothecin], in the series on H460 (NSCLC) (Homo sapiens, NCI-H460), the GI50 came out at 3900 nM.
`CCc1c2c(nc3ccc(OC(=O)CCC(=O)Oc4c(C)c(C)c5c(c4C)CC[C@@](C)(CCC[C@H](C)CCC[C@H](C)CCCC(C)C)O5)cc13)-c1cc3c(c(=O)n1C2)COC(=O)[C@@]3(CC)OC(C)=O` [20-acetyl-10-VESA-SN38, 20-Acetyl-10-(d-α-tocopherolsuccinate)-7-ethyl-10-hydroxycamptothecin]: the GI50 in the series with HCT-116 (COLON) [1] (Homo sapiens, HCT-116) turned out to be 144 nM; in the series on H460 (NSCLC) (Homo sapiens, NCI-H460), 1260 nM.
By MRT is commonly meant the average time that molecules of a dose stay in the body. As to `CCc1c2c(nc3ccc(OC(=O)N4CCC(N5CCCCC5)CC4)cc13)-c1cc3c(c(=O)n1C2)COC(=O)[C@]3(O)CC` [Irinotecan, irinotecan hydrochloride], the mean residence time (MRT) in [2] was 1.43 h.
In the series on HCT-116 (COLON) [1] (Homo sapiens, HCT-116, HCT-116), `CCc1c2c(nc3ccc(OC(=O)CCCC(=O)Oc4c(C)c(C)c5c(c4C)CC[C@@](C)(CCC[C@H](C)CCC[C@H](C)CCCC(C)C)O5)cc13)C1CC3C(COC(=O)[C@]3(O)CC)C(=O)N1C2` (stereo partly drawn) [d-α-Tocopherolglutarate-SN38, d-α-Tocopherolglutarate-7-ethyl-10-hydroxycamptothecin] had a GI50 of 190 nM.
As a reminder, the clearance is the rate of elimination divided by the concentration. Regarding `CC[C@@]1(OC(=O)CCC(=O)Oc2c(C)c(C)c3c(c2C)CC[C@@](C)(CCC[C@H](C)CCC[C@H](C)CCCC(C)C)O3)C(=O)OCc2c1cc1n(c2=O)Cc2cc3ccccc3nc2-1` [VESA-CPT, Butanedioic acid, (2R)-3,4-dihydro-2,5,7,8-tetramethyl-2-[(4R,8R)-4,8,12-trimethyltridecyl]-2H-1-benzopyran-6-yl (4S)-4-ethyl-3,4,12,14-tetrahydro-3,14-dioxo-1H-pyrano[3′,4′:6,7]indolizino[1,2-b]quinolin-4-yl ester], the Solubility is reported as 49.6 mg/g in series [3] (Acetonitrile, Room Temp.); 96.7 mg/g in [3] (Captex 300 EP, Room Temp.); above 372.5 mg/g in [3] (Chloroform, Room Temp.); above 255.5 mg/g in series [3] (DMSO, Room Temp.); 57.1 mg/g in [3] (Ethanol Denatured, Room Temp.); 2.541 mg/g in [3] (Glycerin USP/EP/BP/JP, Room Temp.). The Solubility in series [3] (Methanol, Room Temp.) is 14.4 mg/g; in series [3] (Methylene dichloride, Room Temp.) it was above 336.5 mg/g; in series [3] (PEG-400 NF, Room Temp.), 17.5 mg/g; in series [3] (Propylene Glycol, USP, Room Temp.), 0.4633 mg/g; in [3] (Soybean Oil USP, Room Temp.), 45.2 mg/g; in series [3] (TPGS, 65 °C) it was above 133.3 mg/g. Moreover, the Solubility in [3] (Tween 80 NF, 65 → Room Temp.) was 48.3 mg/g; in series [3] (Vitamin E USP/NF, 65 °C) it was above 288.3 mg/g. Besides, the GI50 stood at 325 nM in the series on MCF-7 (BREAST); 43 nM in the series on NCI-H460 (NSCLC) (NCI-H460, 48 h); 20000 nM with HCT-15 (COLON) (HCT-15, 48 h); 434 nM with HT29 (COLON) (HT-29, 48 h); 449 nM with HCT-116 (COLON) [4] (HCT-116, 48 h). Also, in the series on OVCAR-3 (OVARIAN), the “GI50 (result in words)” value is recorded as “Poor”. Moreover, the MRT in series [5] (in vivo) was determined as 9.4 h. Moreover, the clearance in series [5] (in vivo) was 0.135 mL/min/kg. Further, in series [5] (in vivo), the half-life was 29.1 h. Also, the “Number of animals with no measurable tumor on Day 55” value in the series with HT-29 human tumor cells (q1dx5 (2 weeks)) and with HT-29 human tumor cells (q3dx10) was 0/10 each time. Besides, the “Tumor Growth Delay (T-C)” value in the series with HT-29 human tumor cells (q1dx5 (2 weeks)) amounted to 8.5 days; in the series with HT-29 human tumor cells (q3dx10), 0 days. For the same compound, the “Tumor Growth Inhibition (% T/C)” value in the series with HT-29 human tumor cells (q1dx5 (2 weeks), Day 55) is 79 % T/C. In addition, in series [6], the “Stability of the lactone form” value is “greater than that of camptothecin”.
In turn, `CCc1c2c(nc3ccc(OC(=O)CC(C)CC(=O)Oc4cc(C)c5c(c4)CC[C@@](C)(CCC[C@H](C)CCC[C@H](C)CCCC(C)C)O5)cc13)-c1cc3c(c(=O)n1C2)COC(=O)[C@]3(O)CC` (stereo partly drawn) [δ-tocopherol-3-methylglutarate-SN38, δ-Tocopherol-3-methylglutarate-7-ethyl-10-hydroxycamptothecin] came in with a GI50 in the series on SKOV-3 (OVARIAN) of 1.48 nM.
Take `CCc1c2c(nc3ccc(OC(=O)CCC(=O)Oc4c(C)c(C)c5c(c4C)CC[C@@](C)(CCC[C@H](C)CCC[C@H](C)CCCC(C)C)O5)cc13)-c1cc3c(c(=O)n1C2)COC(=O)[C@]3(O)CC` [VESA-SN38, Butanedioic acid, (4S)-4,11-diethyl-3,4,12,14-tetrahydro-4-hydroxy-3,14-dioxo-1H-pyrano[3′,4′:6,7]indolizino[1,2-b]quinolin-9-yl (2R)-3,4-dihydro-2,5,7,8-tetramethyl-2-[(4R,8R)-4,8,12-trimethyltridecyl]-2H-1-benzopyran-6-yl ester]: the 50% growth inhibitory concentration (GI50) in the series on NCI-H460 (NSCLC) (NCI-H460, emulsion formulations, 48 hours, ALAMAR BLUE, read-out: GI50) was found to be 4 nM; in the series on HCT-15 (COLON) (HCT-15, emulsion formulations, 48 hours, ALAMAR BLUE, read-out: GI50) it was 99 nM; in the series with HT29 (COLON) (HT-29, HT29, emulsion formulations, 48 hours, ALAMAR BLUE, read-out: GI50) it was 91 nM; in the series with OVCAR-3 (OVARIAN) (Homo sapiens) it was 83 nM; in the series on HCT-116 (COLON) [4] (HCT-116, emulsion formulations, 48 hours, ALAMAR BLUE, read-out: GI50) it was 119 nM. Besides, in [5], the MRT was 5.15 h. For the same compound, the clearance in series [5] was 0.112 mL/min/kg. The half-life in [5] was 3.49 h. Further, the “Number of animals with no measurable tumor on Day 55” value with HT-29 human tumor cells (q1dx5 (2 weeks)) is listed as 4/10; with HT-29 human tumor cells (q3dx10), 8/10. Besides, the “Tumor Growth Delay (T-C)” value in the series with HT-29 human tumor cells (q1dx5 (2 weeks)) and in the series on HT-29 human tumor cells (q3dx10) was >28* days in each case. Also, the “Tumor Growth Inhibition (% T/C)” value with HT-29 human tumor cells (q1dx5 (2 weeks), Day 55) is reported as 4 % T/C; in the series on HT-29 human tumor cells (q3dx10, Day 55), 2 % T/C. Also, the “Mice with no measurable tumor” value is listed as 40% in the series on HT-29 human tumor cells (q1dx5) and 80% in the series on HT-29 human tumor cells (q3dx10). In addition, the “Stability of the lactone form” value in series [6] is “greater than that of camptothecin”.
